The results in this text go back to publication PMC8550792, “Evolution of kinase polypharmacology across HSP90 drug discovery” (Cell Chemical Biology, 2021).

Experiment in all cases: biochemical
Common to all, as to type: biochemical

Assay [1] concerns the target T1, 382 unique human kinases (Homo sapiens, UniProt Q04771, R206H).
T1 construct: purchased Reaction Biology (HotSpot contract assay)
T1 sequence (Q04771 21-509 R206H): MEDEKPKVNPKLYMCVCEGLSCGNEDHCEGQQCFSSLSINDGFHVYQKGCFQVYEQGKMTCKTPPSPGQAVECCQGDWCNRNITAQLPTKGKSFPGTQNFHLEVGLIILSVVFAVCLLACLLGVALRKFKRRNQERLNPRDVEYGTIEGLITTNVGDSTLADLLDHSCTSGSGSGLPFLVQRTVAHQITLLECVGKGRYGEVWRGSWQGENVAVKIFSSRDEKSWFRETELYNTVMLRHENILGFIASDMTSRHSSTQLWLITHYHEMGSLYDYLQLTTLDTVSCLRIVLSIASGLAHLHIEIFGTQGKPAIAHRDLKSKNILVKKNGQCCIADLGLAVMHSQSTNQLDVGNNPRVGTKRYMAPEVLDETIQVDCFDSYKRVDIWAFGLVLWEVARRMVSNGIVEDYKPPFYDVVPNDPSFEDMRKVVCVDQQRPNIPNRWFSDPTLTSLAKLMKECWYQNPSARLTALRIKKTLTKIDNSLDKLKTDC
The note with it: ALK2 (R206H), compound at 10 uM, duplicate values; for remaining activity at 10 µM: read-out: % Enzyme Activity (relative to DMSO controls).

Assay [2] concerns the target T2, 382 unique human kinases (Homo sapiens, UniProt Q15303).
T2 construct: purchased Reaction Biology (HotSpot contract assay)
As to conditions: kinase ERBB4/HER4, compound 10 uM; for remaining activity at 10 µM: read-out: % Enzyme Activity (relative to DMSO controls).

Assay [3] addresses T3, 382 unique human kinases (Homo sapiens, UniProt Q8TF76).
T3 construct: purchased Reaction Biology (HotSpot contract assay)
T3 sequence (Q8TF76 1-798): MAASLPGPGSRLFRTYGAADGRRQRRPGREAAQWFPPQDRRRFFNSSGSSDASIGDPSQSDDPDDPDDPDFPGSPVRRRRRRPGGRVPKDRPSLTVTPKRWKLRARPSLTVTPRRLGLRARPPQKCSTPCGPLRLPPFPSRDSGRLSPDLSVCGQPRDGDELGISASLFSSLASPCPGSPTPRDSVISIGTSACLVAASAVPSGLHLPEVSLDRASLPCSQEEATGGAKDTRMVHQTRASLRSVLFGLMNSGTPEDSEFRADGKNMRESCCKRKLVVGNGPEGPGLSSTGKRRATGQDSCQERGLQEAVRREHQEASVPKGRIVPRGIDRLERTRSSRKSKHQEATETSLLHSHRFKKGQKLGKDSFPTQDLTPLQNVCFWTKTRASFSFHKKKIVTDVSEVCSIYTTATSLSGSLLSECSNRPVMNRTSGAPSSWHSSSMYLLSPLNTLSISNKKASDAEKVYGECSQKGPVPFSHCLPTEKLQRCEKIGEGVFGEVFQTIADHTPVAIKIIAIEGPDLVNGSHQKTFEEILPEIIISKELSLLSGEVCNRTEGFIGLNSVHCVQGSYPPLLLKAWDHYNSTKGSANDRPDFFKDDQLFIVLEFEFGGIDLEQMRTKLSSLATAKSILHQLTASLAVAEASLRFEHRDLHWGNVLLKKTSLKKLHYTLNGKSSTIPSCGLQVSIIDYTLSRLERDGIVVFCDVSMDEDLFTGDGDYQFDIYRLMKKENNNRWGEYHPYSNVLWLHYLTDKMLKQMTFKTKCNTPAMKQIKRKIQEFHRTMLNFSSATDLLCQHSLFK
As to conditions: Haspin, 10 uM; for remaining activity at 10 µM: read-out: % Enzyme Activity (relative to DMSO controls).

The target in assay [4] is T4, 382 unique human kinases (Homo sapiens, UniProt Q92630).
T4 construct: purchased Reaction Biology (HotSpot contract assay)
T4 sequence (Q92630 1-601): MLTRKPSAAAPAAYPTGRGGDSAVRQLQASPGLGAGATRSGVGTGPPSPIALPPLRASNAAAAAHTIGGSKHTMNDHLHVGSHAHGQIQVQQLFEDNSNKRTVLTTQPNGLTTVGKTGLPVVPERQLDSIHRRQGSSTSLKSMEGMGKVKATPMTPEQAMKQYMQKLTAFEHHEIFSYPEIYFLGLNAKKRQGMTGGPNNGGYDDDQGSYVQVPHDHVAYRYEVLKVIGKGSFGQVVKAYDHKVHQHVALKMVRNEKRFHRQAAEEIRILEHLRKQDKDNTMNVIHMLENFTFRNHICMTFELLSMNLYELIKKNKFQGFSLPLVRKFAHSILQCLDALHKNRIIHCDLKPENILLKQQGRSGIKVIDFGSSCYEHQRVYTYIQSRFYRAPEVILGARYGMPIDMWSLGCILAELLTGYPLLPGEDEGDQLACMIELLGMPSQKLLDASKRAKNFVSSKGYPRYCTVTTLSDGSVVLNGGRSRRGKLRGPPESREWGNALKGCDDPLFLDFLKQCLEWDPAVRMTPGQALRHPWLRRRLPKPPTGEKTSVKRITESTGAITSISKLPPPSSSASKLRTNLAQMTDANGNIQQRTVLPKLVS
The note with it: DYRK2, 10 uM; for remaining activity at 10 µM: read-out: % Enzyme Activity (relative to DMSO controls).

The target of assay [5] is T5, 382 unique human kinases (Homo sapiens, UniProt Q9NWZ3).
T5 construct: purchased Reaction Biology (HotSpot contract assay)
T5 sequence (Q9NWZ3 1-460): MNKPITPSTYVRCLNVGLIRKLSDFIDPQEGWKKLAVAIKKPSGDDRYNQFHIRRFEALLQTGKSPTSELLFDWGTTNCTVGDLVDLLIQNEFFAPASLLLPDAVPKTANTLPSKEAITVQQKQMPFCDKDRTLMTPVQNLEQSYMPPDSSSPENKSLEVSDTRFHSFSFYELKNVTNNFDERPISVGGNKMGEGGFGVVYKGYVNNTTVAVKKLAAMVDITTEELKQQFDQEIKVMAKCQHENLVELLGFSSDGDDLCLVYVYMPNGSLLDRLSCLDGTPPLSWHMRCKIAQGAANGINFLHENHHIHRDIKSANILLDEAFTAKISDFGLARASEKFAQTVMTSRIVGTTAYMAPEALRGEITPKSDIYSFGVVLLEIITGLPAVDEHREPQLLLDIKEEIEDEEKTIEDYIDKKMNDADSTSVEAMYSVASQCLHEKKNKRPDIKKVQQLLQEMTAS
As to conditions: kinase IRAK4, compound 10 uM; for remaining activity at 10 µM: read-out: % Enzyme Activity (relative to DMSO controls).

Assay [6] concerns the target T6, 382 unique human kinases (Homo sapiens, UniProt P10721, A829P).
T6 construct: purchased Reaction Biology (HotSpot contract assay)
As to conditions: c-Kit (A829P), [ATP] 50 µM, compound 10 uM; for remaining activity at 10 µM: read-out: % Enzyme Activity (relative to DMSO controls).

Assay [7] addresses T7, 382 unique human kinases (Homo sapiens, UniProt P49761).
T7 construct: purchased Reaction Biology (HotSpot contract assay)
The note with it: CLK3, [ATP] 30 µM, compound 10 uM; for remaining activity at 10 µM: read-out: % Enzyme Activity (relative to DMSO controls).

Assay [8] concerns the target T8, 382 unique human kinases (Homo sapiens, UniProt P00519).
T8 construct: purchased Reaction Biology (HotSpot contract assay)
The note with it: ABL1, [ATP] 40 µM.

For assay [9], the target named is T9, 382 unique human kinases (Homo sapiens, UniProt Q16539, T106M).
T9 construct: purchased Reaction Biology (HotSpot contract assay)
The note with it: P38a (T106M), 10 uM; for remaining activity at 10 µM: read-out: % Enzyme Activity (relative to DMSO controls).

T7 sequence (P49761 whole entry): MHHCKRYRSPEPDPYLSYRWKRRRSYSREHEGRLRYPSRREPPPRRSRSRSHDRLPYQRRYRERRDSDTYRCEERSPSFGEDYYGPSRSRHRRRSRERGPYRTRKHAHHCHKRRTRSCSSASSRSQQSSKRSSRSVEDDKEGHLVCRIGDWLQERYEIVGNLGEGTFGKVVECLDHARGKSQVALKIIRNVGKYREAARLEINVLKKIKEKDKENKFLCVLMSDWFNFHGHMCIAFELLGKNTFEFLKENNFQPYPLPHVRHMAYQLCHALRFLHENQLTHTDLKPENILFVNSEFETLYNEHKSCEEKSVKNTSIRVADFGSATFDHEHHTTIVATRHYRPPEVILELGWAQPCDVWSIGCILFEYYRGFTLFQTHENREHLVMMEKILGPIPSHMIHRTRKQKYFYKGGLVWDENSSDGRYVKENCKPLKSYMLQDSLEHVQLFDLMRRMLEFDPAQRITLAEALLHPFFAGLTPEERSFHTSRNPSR
T8 sequence (P00519 whole entry): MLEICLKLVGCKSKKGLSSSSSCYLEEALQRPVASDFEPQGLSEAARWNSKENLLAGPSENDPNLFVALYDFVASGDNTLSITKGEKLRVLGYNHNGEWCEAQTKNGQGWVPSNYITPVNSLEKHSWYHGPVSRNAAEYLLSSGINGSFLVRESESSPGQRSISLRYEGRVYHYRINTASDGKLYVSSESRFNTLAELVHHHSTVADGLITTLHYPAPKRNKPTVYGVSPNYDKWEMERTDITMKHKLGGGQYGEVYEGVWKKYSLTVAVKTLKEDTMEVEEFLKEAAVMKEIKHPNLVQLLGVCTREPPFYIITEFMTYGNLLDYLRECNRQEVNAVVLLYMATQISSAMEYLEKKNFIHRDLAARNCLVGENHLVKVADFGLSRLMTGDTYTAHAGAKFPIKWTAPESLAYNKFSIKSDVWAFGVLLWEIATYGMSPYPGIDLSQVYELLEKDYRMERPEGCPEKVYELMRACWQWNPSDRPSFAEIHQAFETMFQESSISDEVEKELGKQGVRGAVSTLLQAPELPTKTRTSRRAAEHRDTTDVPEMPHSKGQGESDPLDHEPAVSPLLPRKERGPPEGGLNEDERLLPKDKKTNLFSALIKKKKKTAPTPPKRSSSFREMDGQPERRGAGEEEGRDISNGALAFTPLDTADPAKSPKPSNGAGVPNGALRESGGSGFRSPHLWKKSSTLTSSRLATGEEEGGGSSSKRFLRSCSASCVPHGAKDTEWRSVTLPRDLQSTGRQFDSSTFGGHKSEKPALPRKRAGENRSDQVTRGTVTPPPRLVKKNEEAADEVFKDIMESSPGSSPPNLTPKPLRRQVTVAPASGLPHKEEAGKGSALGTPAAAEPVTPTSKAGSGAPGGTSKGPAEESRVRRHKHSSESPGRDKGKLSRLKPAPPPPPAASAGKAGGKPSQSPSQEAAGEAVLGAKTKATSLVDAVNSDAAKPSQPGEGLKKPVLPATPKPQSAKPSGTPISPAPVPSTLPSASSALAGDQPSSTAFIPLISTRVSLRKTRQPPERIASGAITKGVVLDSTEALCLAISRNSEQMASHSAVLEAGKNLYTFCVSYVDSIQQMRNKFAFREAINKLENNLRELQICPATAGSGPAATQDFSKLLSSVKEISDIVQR
T2 sequence (Q15303 26-1308): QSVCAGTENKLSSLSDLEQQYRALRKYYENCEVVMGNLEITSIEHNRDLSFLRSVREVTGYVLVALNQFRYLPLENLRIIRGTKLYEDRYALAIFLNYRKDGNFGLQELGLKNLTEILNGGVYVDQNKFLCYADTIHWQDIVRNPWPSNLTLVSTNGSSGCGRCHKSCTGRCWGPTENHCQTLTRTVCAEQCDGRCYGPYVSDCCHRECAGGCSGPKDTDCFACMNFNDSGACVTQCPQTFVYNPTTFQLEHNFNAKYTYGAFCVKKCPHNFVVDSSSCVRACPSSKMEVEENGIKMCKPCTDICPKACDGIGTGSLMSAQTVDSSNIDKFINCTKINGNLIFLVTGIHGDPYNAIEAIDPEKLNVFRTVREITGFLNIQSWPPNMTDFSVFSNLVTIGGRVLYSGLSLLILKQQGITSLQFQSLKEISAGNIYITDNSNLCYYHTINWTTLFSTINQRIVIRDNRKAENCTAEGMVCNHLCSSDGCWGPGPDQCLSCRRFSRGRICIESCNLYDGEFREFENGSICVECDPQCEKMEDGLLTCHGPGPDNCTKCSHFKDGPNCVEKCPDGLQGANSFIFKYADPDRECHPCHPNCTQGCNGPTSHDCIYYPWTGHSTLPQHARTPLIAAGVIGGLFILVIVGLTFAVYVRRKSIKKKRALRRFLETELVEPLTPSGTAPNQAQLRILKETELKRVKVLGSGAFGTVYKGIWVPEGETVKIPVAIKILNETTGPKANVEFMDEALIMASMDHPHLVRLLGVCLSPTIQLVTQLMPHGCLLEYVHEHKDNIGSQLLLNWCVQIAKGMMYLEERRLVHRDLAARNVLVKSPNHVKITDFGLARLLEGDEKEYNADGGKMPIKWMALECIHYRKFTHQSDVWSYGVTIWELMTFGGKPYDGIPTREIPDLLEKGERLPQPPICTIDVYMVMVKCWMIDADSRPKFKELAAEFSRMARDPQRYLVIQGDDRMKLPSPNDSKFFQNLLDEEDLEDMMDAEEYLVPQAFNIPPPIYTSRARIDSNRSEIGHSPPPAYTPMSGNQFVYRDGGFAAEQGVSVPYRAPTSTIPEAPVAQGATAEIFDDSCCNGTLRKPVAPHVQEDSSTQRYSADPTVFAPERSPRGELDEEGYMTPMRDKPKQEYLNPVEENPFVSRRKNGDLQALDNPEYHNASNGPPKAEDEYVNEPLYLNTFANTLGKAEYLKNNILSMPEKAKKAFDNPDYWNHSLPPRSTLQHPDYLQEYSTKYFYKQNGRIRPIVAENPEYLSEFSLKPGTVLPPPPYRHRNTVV
T9 sequence (Q16539 whole entry T106M): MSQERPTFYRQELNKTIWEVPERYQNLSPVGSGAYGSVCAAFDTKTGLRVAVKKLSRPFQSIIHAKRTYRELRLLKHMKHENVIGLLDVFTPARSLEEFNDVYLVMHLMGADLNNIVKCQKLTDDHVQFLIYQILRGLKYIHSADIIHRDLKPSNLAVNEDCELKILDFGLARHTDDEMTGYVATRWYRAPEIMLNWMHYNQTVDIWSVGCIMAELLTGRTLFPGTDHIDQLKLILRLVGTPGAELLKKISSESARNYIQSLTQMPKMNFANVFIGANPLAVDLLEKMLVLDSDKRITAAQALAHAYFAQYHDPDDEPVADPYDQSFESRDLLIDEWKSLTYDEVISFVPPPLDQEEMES
T6 sequence (P10721 26-976 A829P): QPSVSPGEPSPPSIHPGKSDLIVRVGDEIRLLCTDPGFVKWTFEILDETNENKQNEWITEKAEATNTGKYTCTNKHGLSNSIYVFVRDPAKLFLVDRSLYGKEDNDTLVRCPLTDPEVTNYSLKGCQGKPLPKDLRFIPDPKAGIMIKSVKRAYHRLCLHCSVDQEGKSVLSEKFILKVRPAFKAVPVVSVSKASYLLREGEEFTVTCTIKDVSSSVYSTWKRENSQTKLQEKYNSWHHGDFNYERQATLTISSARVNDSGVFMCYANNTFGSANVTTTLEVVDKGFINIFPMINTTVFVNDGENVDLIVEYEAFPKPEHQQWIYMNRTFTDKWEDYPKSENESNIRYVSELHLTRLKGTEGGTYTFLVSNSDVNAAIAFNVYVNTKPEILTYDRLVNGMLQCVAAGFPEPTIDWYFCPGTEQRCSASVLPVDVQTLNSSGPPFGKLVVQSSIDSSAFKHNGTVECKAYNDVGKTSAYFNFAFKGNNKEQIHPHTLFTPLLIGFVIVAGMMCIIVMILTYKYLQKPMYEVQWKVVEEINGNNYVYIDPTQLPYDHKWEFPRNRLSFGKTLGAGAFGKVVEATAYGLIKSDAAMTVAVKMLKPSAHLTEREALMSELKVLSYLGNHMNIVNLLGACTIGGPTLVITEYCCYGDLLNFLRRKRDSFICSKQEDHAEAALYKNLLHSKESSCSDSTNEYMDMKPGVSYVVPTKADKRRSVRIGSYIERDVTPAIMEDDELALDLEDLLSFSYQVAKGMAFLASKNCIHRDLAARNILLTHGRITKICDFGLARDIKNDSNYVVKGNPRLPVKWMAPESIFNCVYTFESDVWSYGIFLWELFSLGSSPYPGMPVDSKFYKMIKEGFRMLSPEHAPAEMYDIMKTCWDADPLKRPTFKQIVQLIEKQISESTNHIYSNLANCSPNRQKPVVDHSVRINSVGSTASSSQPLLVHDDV

With `CC(C)c1cc(-c2n[nH]c(=O)n2-c2ccc3c(ccn3C)c2)c(O)cc1O` [Ganetespib (STA9090)], the remaining activity at 10 µM on 382 unique human kinases [1] was 142%; at 382 unique human kinases [2] it was 88.8%; on 382 unique human kinases [3], 75.3%; at 382 unique human kinases [4] it was 75%; at 382 unique human kinases [5], 81.5%.
With `CC(C)c1cc(-c2n[nH]c(=O)n2-c2ccc3c(ccn3C)c2)c(O)cc1O` [Ganetespib], the remaining activity at 10 µM at 382 unique human kinases [6] amounted to 49.5%; at 382 unique human kinases [7], 39%; at 382 unique human kinases [9], 95.8%. Besides, the remaining activity at 1 µM at 382 unique human kinases [8] (compound 1 uM, read-out: % Enzyme Activity (relative to DMSO controls)) came to 18.3%.
With `CCNC(=O)c1noc(-c2cc(C(C)C)c(O)cc2O)c1-c1ccc(CN2CCOCC2)cc1` [Luminespib (AUY-922)], the “% Enzyme Activity (relative to DMSO controls)” value on 382 unique human kinases [1] is 113.96%; at 382 unique human kinases [2], 92.70%; on 382 unique human kinases [3], 89.64%; at 382 unique human kinases [4] it was 98.38%; on 382 unique human kinases [5], 106.93%. Also, the remaining activity at 10 µM on 382 unique human kinases [1] was determined as 114%; at 382 unique human kinases [2] it was 92.8%; at 382 unique human kinases [3], 93%; at 382 unique human kinases [4], 99.7%; on 382 unique human kinases [5] it was 118%.
`CCNC(=O)c1noc(-c2cc(C(C)C)c(O)cc2O)c1-c1ccc(CN2CCOCC2)cc1` [Luminespib]: the “% Enzyme Activity (relative to DMSO controls)” value at 382 unique human kinases [6] is 84.14%; on 382 unique human kinases [7] it was 45.99%; at 382 unique human kinases [8] (compound 10 uM), 6.22%; at 382 unique human kinases [9], 98.91%. Further, the remaining activity at 10 µM stood at 85.3% on 382 unique human kinases [6]; 46.6% on 382 unique human kinases [7]; 6.93% on 382 unique human kinases [8] (compound 10 uM, read-out: % Enzyme Activity (relative to DMSO controls)); 99.8% at 382 unique human kinases [9].
